From US20210115509A1, “BIOMARKER FOR IDENTIFYING SPECIFIC EXPOSURE TO KETONES AND METHOD OF IDENTIFICATION USING THE SAME” (KOREA INSTITUTE OF SCIENCE AND TECHNOLOGY, priority 2019, published 2021)

Key:
[1] = tested on: BEAS-2B human bronchial epithelial cell line; test: MTT assay, cytotoxicity of ketone compounds in BEAS-2B cell line; type: cell-based; details: BEAS-2B, 48 hours, MTT
Procedure: BEAS-2B (Korean Cell Line Bank), a human bronchial epithelial cell line, was cultured using RPMI 1640 medium (Gibco, USA) supplemented with 10% FBS until the cells grew to about a confluence of 70 to 80% in a 100 mm dish.
Among ketones belonging to mVOCs (microbial volatile organic compounds) exposed to the environment, acetone, 2-butanone, 2-pentanone, 2-hexanone and 2-heptanone were selected, and the chemicals were dissolved in filtered distilled water (DW). A vehicle concentration was set to 0.1% or less in all experiments.
MTT assay using a BEAS-2B cell line was performed in accordance with the method of Mossman et al. (J. Immunol. Methods, 65, 55-63, 1983).
Specifically, the cells were seeded at a density of 3.5×10^4 cells/well in a 24-well plate and treated with the five ketone compounds dissolved in filtered distilled water, prepared in Example 1-2. After 48 hours, the result was mixed with 5 mg/ml of MTT (3-4,5-dimethylthiazol-2,5-diphenyltetrazolium bromide), added to a tube and incubated at 37° C. for 3 hours. Then, the medium was removed, the formed formazan crystal was dissolved in 500 μl of DMSO, and then 100 μl of the solution was transferred to a 96-well plate to measure an OD (optical density) value at 540 nm.

[2] = tested on: BEAS-2B human bronchial epithelial cell line; test: Gene expression change by high-throughput RNA sequencing (NextSeq 500) in ketone-exposed BEAS-2B cells; type: cell-based
Procedure: RNA was extracted from cell samples of ketone-exposed and non-ketone-exposed groups using a TRIzol reagent (Life Technologies, USA) in accordance with the manufacturer's directions to isolate total RNA and the total RNA was purified using a RNeasy mini kit (Qiagen, USA). The concentration of each total RNA sample was determined by a ND-2000 spectrophotometer (Thermo Inc., DE, USA) as a spectrophotometer and Agilent 2100 Bioanalyzer (Agilent Technologies, USA).
The establishment of libraries from the total RNA obtained in Example 2-1 in the experimental group and the normal control group exposed to the ketones was carried out using a QuantSeq 3′ mRNA-Seq Library Prep Kit (Lexogen, Inc., Austria) in accordance with the manufacturer's directions. 500 ng of the total RNA was hybridized with an oligo-dT primer including an Illumina-compatible sequence at the 5′ end of RNA, followed by reverse transcription. After degradation of the RNA template, a second strand was synthesized using a random primer including an Illumina-compatible linker sequence at the 5′ end thereof. Double-stranded libraries were purified using magnetic beads to remove all reaction components. The library was amplified in order to add the entire adapter sequence required for cluster production, and the completed cDNA library was purified from the PCR components.
Sequencing was performed by high-throughput sequencing as single-end 75 sequencing using a NextSeq 500 (IIlumina, Inc., USA). Read count (RC) data was processed based on the quantile normalization method using EdgeR in R (R development Core Team, 2016) using Bioconductor (Gentleman et al., 2004). Gene classification was based on searches performed on DAVID (http://david.abcc.ncifcrf.gov/) and the Medline database (http://www.ncbi.nlm.nih.gov/).
The extracted data were analyzed through normalization using Agilent GeneSpring GX 12.6.1 (Agilent technologies, CA, USA) to analyze the expression pattern of each gene.

[3] = IC5 conc.: Acetone 5.38, 2-Butanone 22.27, 2-Pentanone 5.24, 2-Hexanone 14.82, 2-Heptanone 5.05 mM
[4] = IC20 conc.: Acetone 71.90, 2-Butanone 106.21, 2-Pentanone 39.38, 2-Hexanone 52.51, 2-Heptanone 20.22 mM

CC(C)=O [Acetone, acetone]
concentration (105) providing a survival rate (viability) of 95% [1]: 5380 µM
concentration (1020) providing a survival rate (viability) of 80% [1]: 71900 µM
Fold change ADRA2A (NM_000681) [2, 3]: 0.179
Fold change ATRNL1 (NR_074088) [2, 3]: 3.000
Fold change C12orf79 (NR_046159) [2, 3]: 0.213
Fold change C14orf80 (NR_046159) [2, 3]: 0.354
Fold change CALML3 (NM_001286399) [2, 3]: 0.354
Fold change CCDC184 (NM_001013635) [2, 3]: 12.166
Fold change CD37 (NM_001040031) [2, 3]: 2.781
Fold change CDHR1 (NM_001171971) [2, 3]: 0.409
Fold change CHL1 (NM_001253387) [2, 3]: 0.224
Fold change COL4A3 (NM_000091) [2, 3]: 4.046
Fold change CRLF2 (NM_022148) [2, 3]: 0.355
Fold change CSF3R (NM_172313) [2, 3]: 0.354
Fold change DNMBP-AS1 (NR_024130) [2, 3]: 2.455
Fold change EGR1 (NM_001964) [2, 3]: 0.422
Fold change GNA14 (NM_004297) [2, 3]: 5.492
Fold change LOC728752 (NR_036504) [2, 3]: 4.554
Fold change PAX8 (NM_003466) [2, 3]: 2.753
Fold change PRRT3-AS1 (NR_046734) [2, 3]: 2.261
Fold change RBP3 (NM_002900) [2, 3]: 0.354
Fold change SEPT14 (NM_207366) [2, 3]: 0.214
Fold change SERPINA12 (NM_001304461) [2, 3]: 0.354
Fold change SLC13A4 (NM_012450) [2, 3]: 10.528
Fold change SPOCK2 (NM_001244950) [2, 3]: 5.291
Fold change TSPAN1 (NM_005727) [2, 3]: 5.935
Fold change USP12-AB1 (NR_046647) [2, 3]: 3.620
Fold change VIPR†-AS1 (NR_046654) [2, 3]: 0.354
Fold change XIRP1 (NM_001198621) [2, 3]: 0.354
Fold change ZFP69B (NM_023070) [2, 3]: 2.708
Fold change ZNF432 (NM_014650) [2, 3]: 4.647
Fold change ZNF487 (NR_026693) [2, 3]: 0.354
Fold change ADRA2A (NM_000681) [2, 4]: 0.355
Fold change ATRNL1 (NR_074088) [2, 4]: 2.751
Fold change C12orf79 (NR_046159) [2, 4]: 0.213
Fold change C14orf80 (NR_046159) [2, 4]: 0.354
Fold change CALML3 (NM_001286399) [2, 4]: 0.354
Fold change CCDC184 (NM_001013635) [2, 4]: 4.927
Fold change CD37 (NM_001040031) [2, 4]: 2.526
Fold change CDHR1 (NM_001171971) [2, 4]: 0.429
Fold change CHL1 (NM_001253387) [2, 4]: 0.360
Fold change COL4A3 (NM_000091) [2, 4]: 2.490
Fold change CRLF2 (NM_022148) [2, 4]: 0.357
Fold change CSF3R (NM_172313) [2, 4]: 0.358
Fold change DNMBP-AS1 (NR_024130) [2, 4]: 5.285
Fold change EGR1 (NM_001964) [2, 4]: 0.437
Fold change GNA14 (NM_004297) [2, 4]: 2.289
Fold change LOC728752 (NR_036504) [2, 4]: 4.939
Fold change PAX8 (NM_003466) [2, 4]: 5.800
Fold change PRRT3-AS1 (NR_046734) [2, 4]: 2.061
Fold change RBP3 (NM_002900) [2, 4]: 0.376
Fold change SEPT14 (NM_207366) [2, 4]: 0.214
Fold change SERPINA12 (NM_001304461) [2, 4]: 0.354
Fold change SLC13A4 (NM_012450) [2, 4]: 12.386
Fold change SPOCK2 (NM_001244950) [2, 4]: 5.054
Fold change TSPAN1 (NM_005727) [2, 4]: 2.949
Fold change USP12-AB1 (NR_046647) [2, 4]: 6.910
Fold change VIPR†-AS1 (NR_046654) [2, 4]: 0.354
Fold change XIRP1 (NM_001198621) [2, 4]: 0.354
Fold change ZFP69B (NM_023070) [2, 4]: 4.454
Fold change ZNF432 (NM_014650) [2, 4]: 5.319
Fold change ZNF487 (NR_026693) [2, 4]: 0.354

CCC(C)=O [2-Butanone, 2-butanone]
concentration (105) providing a survival rate (viability) of 95% [1]: 22270 µM
concentration (1020) providing a survival rate (viability) of 80% [1]: 106210 µM
Fold change ADRA2A (NM_000681) [2, 3]: 0.185
Fold change ATRNL1 (NR_074088) [2, 3]: 3.234
Fold change C12orf79 (NR_046159) [2, 3]: 0.216
Fold change C14orf80 (NR_046159) [2, 3]: 0.356
Fold change CALML3 (NM_001286399) [2, 3]: 0.356
Fold change CCDC184 (NM_001013635) [2, 3]: 2.379
Fold change CD37 (NM_001040031) [2, 3]: 3.286
Fold change CDHR1 (NM_001171971) [2, 3]: 0.470
Fold change CHL1 (NM_001253387) [2, 3]: 0.274
Fold change COL4A3 (NM_000091) [2, 3]: 2.264
Fold change CRLF2 (NM_022148) [2, 3]: 0.359
Fold change CSF3R (NM_172313) [2, 3]: 0.356
Fold change DNMBP-AS1 (NR_024130) [2, 3]: 11.453
Fold change EGR1 (NM_001964) [2, 3]: 0.422
Fold change GNA14 (NM_004297) [2, 3]: 3.512
Fold change LOC728752 (NR_036504) [2, 3]: 3.506
Fold change PAX8 (NM_003466) [2, 3]: 6.636
Fold change PRRT3-AS1 (NR_046734) [2, 3]: 2.207
Fold change RBP3 (NM_002900) [2, 3]: 0.356
Fold change SEPT14 (NM_207366) [2, 3]: 0.458
Fold change SERPINA12 (NM_001304461) [2, 3]: 0.356
Fold change SLC13A4 (NM_012450) [2, 3]: 7.697
Fold change SPOCK2 (NM_001244950) [2, 3]: 3.020
Fold change TSPAN1 (NM_005727) [2, 3]: 2.540
Fold change USP12-AB1 (NR_046647) [2, 3]: 3.499
Fold change VIPR†-AS1 (NR_046654) [2, 3]: 0.356
Fold change XIRP1 (NM_001198621) [2, 3]: 0.356
Fold change ZFP69B (NM_023070) [2, 3]: 4.676
Fold change ZNF432 (NM_014650) [2, 3]: 2.326
Fold change ZNF487 (NR_026693) [2, 3]: 0.356
Fold change ADRA2A (NM_000681) [2, 4]: 0.184
Fold change ATRNL1 (NR_074088) [2, 4]: 2.330
Fold change C12orf79 (NR_046159) [2, 4]: 0.216
Fold change C14orf80 (NR_046159) [2, 4]: 0.356
Fold change CALML3 (NM_001286399) [2, 4]: 0.356
Fold change CCDC184 (NM_001013635) [2, 4]: 6.647
Fold change CD37 (NM_001040031) [2, 4]: 2.647
Fold change CDHR1 (NM_001171971) [2, 4]: 0.222
Fold change CHL1 (NM_001253387) [2, 4]: 0.268
Fold change COL4A3 (NM_000091) [2, 4]: 3.577
Fold change CRLF2 (NM_022148) [2, 4]: 0.359
Fold change CSF3R (NM_172313) [2, 4]: 0.356
Fold change DNMBP-AS1 (NR_024130) [2, 4]: 12.732
Fold change EGR1 (NM_001964) [2, 4]: 0.404
Fold change GNA14 (NM_004297) [2, 4]: 5.582
Fold change LOC728752 (NR_036504) [2, 4]: 6.647
Fold change PAX8 (NM_003466) [2, 4]: 2.233
Fold change PRRT3-AS1 (NR_046734) [2, 4]: 2.147
Fold change RBP3 (NM_002900) [2, 4]: 0.356
Fold change SEPT14 (NM_207366) [2, 4]: 0.217
Fold change SERPINA12 (NM_001304461) [2, 4]: 0.356
Fold change SLC13A4 (NM_012450) [2, 4]: 8.571
Fold change SPOCK2 (NM_001244950) [2, 4]: 8.426
Fold change TSPAN1 (NM_005727) [2, 4]: 2.466
Fold change USP12-AB1 (NR_046647) [2, 4]: 5.570
Fold change VIPR†-AS1 (NR_046654) [2, 4]: 0.356
Fold change XIRP1 (NM_001198621) [2, 4]: 0.356
Fold change ZFP69B (NM_023070) [2, 4]: 2.942
Fold change ZNF432 (NM_014650) [2, 4]: 6.342
Fold change ZNF487 (NR_026693) [2, 4]: 0.356
